Source: the NIST ThermoML archive (doi:10.1016/j.jct.2008.01.007)

Test: xn = mol fraction of the nth substance listed
Settings: 101 kPa, Liquid

OCCN1CCOCC1 [4-morpholineethanol] + O
Settings	mass density, 293.15 K [kg/m3]	mass density, 303.15 K [kg/m3]	mass density, 313.15 K [kg/m3]	mass density, 323.15 K [kg/m3]	mass density, 333.15 K [kg/m3]	viscosity, 293.15 K [mPa·s]	viscosity, 303.15 K [mPa·s]	viscosity, 313.15 K [mPa·s]	viscosity, 323.15 K [mPa·s]	viscosity, 333.15 K [mPa·s]
x1 = 0.0628	1041.44	1033.11	1024.47	1017.66	1012.27	14.46	9.721	8.148	6.767	4.413
x1 = 0.1126	1061.42	1052.36	1043.65	1035.57	1029.49	22.98	18.02	13.55	11.37	9.233
x1 = 0.1985	1078.87	1069.04	1060.34	1052.34	1044.12	33.29	27.47	22.61	17.84	13.91
x1 = 0.2466	1083.81	1073.73	1065.05	1057.12	1048.47	–	–	–	–	–
x1 = 0.2887	1086.11	1075.86	1067.22	1059.03	1050.37	39.28	33.52	28.26	23.09	17.82
x1 = 0.3459	1087.54	1077.13	1068.55	1060.61	1051.89	41.75	35.73	30.86	25.45	19.93
x1 = 0.4127	1087.67	1077.14	1068.64	1061.07	1052.63	43.23	37.33	31.64	25.94	20.12
x1 = 0.4852	1086.69	1076.07	1067.65	1060.28	1052.39	44.02	37.36	31.41	25.4	19.72
x1 = 0.5438	1085.22	1074.56	1066.2	1058.66	1051.46	–	–	–	–	–
x1 = 0.5842	1084.37	1073.69	1065.37	1057.87	1050.71	43.33	36.22	29.62	23.17	18.58
x1 = 0.6438	1082.81	1072.11	1063.85	1056.41	1049.64	42.3	34.92	28.05	21.34	16.15
x1 = 0.6878	1081.6	1070.89	1062.67	1055.27	1048.84	–	–	–	–	–
x1 = 0.7439	1080.31	1069.59	1061.41	1054.22	1047.82	39.78	32.9	25.58	19.58	14.06
x1 = 0.8238	1078.68	1068.19	1060.06	1053.44	1047.09	36.28	30.25	23.38	18.01	12.67
x1 = 0.8846	1077.69	1067.27	1059.5	1052.95	1046.7	33.61	27.11	22.16	16.98	11.26
x1 = 0.9486	1077.17	1066.94	1059.41	1052.79	1046.54	–	–	–	–	–
x1 = 1	1076.58	1066.51	1059.19	1052.64	1046.43	26.58	21.99	17.32	12.86	8.284
